Earlier results, collected in patent publication US20140154783A1, “BIOPROCESSING” (priority 2009, published 2014).

What was measured:
[1] = test system: influenza A (avian plague virus); details: high concentrations; chick embryo fibroblasts infected with influenza A (avian plague virus); Klenk et al. 1972
neuraminidase = details: influenza-infected MDCK cells; Barrere et al. 1997; read-out: Ki, reversible inhibition of neuraminidase

| SMILES | formation of hemagglutinin, neuraminidase, and mature virions [1] | Ki (neuraminidase) [µM] |
| --- | --- | --- |
| O=CC[C@@H](O)[C@H](O)[C@H](O)CO [2-deoxy-D-glucose] | inhibited |  |
| COc1cc(C(F)F)ccc1OC1(C(=O)O)CC(O)C(NC(C)=O)C(C(O)C(O)CO)O1 (stereo not drawn) [4-difluoromethyl-2-methoxy-phenyl-α-ketoside of N-acetylneuraminic acid] |  | 80 |
| N[C@H]1C(O)O[C@H](CO)[C@@H](O)[C@@H]1O (stereo partly drawn) [D-glucosamine] | inhibited |  |
